From ChEMBL document CHEMBL1128401, “Structure-activity relationships in the 8-amino-6,7,8,9-tetrahydro-3H-benz[e]indole ring system. 1. Effects of substituents in the aromatic system on serotonin and dopamine receptor subtypes” (J Med Chem, 1995)
The source made the active and inactive calls. The rule behind the calls is not given here.

Assays:
[1] = test system: Rattus norvegicus; experiment: In vivo for DOPA accumulation in corpus striatum against reserpine-pretreated rats.; format: functional
[2] = test system: Rattus norvegicus; experiment: In vivo for DOPA accumulation in limbic system against reserpine-pretreated rats.; format: functional
[3] = target: T1, D(2) dopamine receptor (Rattus norvegicus, UniProt P61169); experiment: Binding affinity against Dopamine receptor D2 from CHO-K1 cells, using [3H]U-86,170 as the radioligand.; format: cell-based
T1 sequence (P61169 whole entry): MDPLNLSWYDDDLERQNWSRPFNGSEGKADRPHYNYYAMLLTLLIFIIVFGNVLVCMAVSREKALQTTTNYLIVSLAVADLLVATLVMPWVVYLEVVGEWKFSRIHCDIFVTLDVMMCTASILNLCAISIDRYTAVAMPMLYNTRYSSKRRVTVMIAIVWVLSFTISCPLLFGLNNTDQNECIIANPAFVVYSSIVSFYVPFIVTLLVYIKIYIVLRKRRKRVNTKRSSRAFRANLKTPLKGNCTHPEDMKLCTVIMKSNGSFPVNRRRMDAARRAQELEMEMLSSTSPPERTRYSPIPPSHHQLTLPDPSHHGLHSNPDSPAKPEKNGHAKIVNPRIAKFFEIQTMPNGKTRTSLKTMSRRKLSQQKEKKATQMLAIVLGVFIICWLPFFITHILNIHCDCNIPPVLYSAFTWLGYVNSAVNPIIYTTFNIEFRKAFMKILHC

[4] = test system: Rattus norvegicus; experiment: In vivo for 5-HTP accumulation in hemispheres (cortex) against reserpine-pretreated rats.; format: functional
[5] = target: 5-hydroxytryptamine receptor 1B (Homo sapiens, UniProt P28222); experiment: Binding affinity against 5-hydroxytryptamine 1D receptor beta expressed in CHO-K1 cells, using [3H]5-HT as the radioligand.; format: cell-based
Sequence of 5-hydroxytryptamine receptor 1B (P28222 whole entry): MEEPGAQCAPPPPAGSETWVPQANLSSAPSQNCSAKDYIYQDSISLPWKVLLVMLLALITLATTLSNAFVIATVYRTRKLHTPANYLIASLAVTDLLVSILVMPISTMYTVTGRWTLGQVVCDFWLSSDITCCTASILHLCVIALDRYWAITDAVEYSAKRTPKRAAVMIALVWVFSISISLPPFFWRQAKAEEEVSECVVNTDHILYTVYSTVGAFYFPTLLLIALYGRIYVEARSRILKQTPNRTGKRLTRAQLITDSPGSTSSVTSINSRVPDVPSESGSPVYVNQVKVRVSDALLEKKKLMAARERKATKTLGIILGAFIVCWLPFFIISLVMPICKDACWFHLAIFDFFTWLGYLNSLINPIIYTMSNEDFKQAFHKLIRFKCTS

[6] = test system: Rattus norvegicus; experiment: In vivo for 5-HTP accumulation in limbic system against reserpine-pretreated rats.; format: functional
[7] = target: T2, 5-hydroxytryptamine receptor 1A (Rattus norvegicus, UniProt P19327); experiment: Binding affinity against 5-hydroxytryptamine 1A receptor from CHO-K1 cells, using [3H]8-OH-DPAT as the radioligand.; format: cell-based
T2 sequence (P19327 whole entry): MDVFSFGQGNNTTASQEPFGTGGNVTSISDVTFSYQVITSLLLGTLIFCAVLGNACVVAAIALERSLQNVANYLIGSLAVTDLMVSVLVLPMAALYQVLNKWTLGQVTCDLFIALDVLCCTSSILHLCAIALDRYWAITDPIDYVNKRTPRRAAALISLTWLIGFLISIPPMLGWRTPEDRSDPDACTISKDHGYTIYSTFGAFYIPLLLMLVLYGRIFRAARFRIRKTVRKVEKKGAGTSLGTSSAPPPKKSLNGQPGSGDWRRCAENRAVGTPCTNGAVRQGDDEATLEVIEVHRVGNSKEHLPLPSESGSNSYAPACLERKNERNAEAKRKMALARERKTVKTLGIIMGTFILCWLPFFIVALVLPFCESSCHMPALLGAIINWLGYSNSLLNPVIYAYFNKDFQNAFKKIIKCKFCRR

[8] = test system: Rattus norvegicus; experiment: The Compound was tested in vivo for DOPA accumulation in hemispheres (cortex) against reserpine-pretreated rats;I= inactive at the highest dose (12.5); format: functional, organism-based
[9] = test system: Rattus norvegicus; experiment: In vivo for 5-HTP accumulation in corpus striatum against reserpine-pretreated rats.; format: functional
[10] = Bioavailability in rat plasma following iv/po dose; format: ADME, organism-based
[11] = tmax in hours at a po dose of 10.0(pmol/g/h).; format: ADME, organism-based; settings: in vivo
[12] = test system: Rattus norvegicus; experiment: Bioavailability in male Sprague-Dawley rats, after the iv administration at a dose of 2.0(pmol/g/h); format: ADME, organism-based; settings: in vivo
[13] = tmax in hours at a iv dose of 2.0(pmol/g/h).; format: ADME, organism-based; settings: in vivo
[14] = test system: Rattus norvegicus; experiment: Bioavailability in male Sprague-Dawley rats, after the po administration at a dose of 10.0(pmol/g/h); format: ADME, organism-based; settings: in vivo
[15] = test system: Rattus norvegicus; experiment: compound was tested in vivo for DOPA accumulation in corpus striatum against reserpine-pretreated rats; I= inactive at the highest dose tested (50).; format: functional, organism-based
[16] = test system: Rattus norvegicus; experiment: compound was tested in vivo for 5-HTP accumulation in hemispheres (cortex) against reserpine-pretreated rats; format: functional
[17] = target: T1, D(2) dopamine receptor; experiment: Binding affinity against Dopamine receptor D2 expressed in CHO-K1 cells, using [3H]U-86170 as the radioligand.; format: cell-based
[18] = target: 5-hydroxytryptamine receptor 1D (Homo sapiens, UniProt P28221); experiment: Binding affinity against 5-hydroxytryptamine 1D receptor alpha expressed in CHO-K1 cells, using [3H]-5-HT as the radioligand.; format: cell-based; settings: read-out: Ki
Sequence of 5-hydroxytryptamine receptor 1D (P28221 whole entry): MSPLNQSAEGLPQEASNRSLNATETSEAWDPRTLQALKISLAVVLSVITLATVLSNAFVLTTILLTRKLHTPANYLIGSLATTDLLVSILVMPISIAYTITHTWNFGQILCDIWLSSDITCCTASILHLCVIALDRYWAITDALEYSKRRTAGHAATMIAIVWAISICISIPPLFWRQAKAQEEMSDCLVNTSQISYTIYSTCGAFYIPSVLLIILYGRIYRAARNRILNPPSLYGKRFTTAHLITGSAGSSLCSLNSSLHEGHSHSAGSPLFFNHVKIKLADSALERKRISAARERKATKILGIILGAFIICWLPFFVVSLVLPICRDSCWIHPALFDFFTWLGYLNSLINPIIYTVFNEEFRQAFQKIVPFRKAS

[19] = target: T3, D(3) dopamine receptor (Rattus norvegicus, UniProt P19020); experiment: The compound was tested in vitro for binding affinity against cloned mammalian Dopamine receptor D3 expressed in CHO cells by, using [3H]spiperone as radioligand; format: cell-based
T3 sequence (P19020 whole entry): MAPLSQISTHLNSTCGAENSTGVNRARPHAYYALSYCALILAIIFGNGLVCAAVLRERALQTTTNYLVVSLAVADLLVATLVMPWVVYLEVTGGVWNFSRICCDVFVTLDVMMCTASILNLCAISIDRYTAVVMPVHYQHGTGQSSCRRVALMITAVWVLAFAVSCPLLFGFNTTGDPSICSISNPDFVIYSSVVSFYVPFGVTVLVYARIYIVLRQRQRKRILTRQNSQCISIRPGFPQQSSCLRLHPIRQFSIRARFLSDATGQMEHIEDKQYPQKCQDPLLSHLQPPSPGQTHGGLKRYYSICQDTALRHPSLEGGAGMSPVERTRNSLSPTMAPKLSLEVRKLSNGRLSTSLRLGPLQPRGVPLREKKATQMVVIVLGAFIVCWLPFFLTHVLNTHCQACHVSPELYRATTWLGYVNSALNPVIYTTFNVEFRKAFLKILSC

[20] = test system: Rattus norvegicus; experiment: compound was tested in vivo for 5-HTP accumulation in corpus striatum against reserpine-pretreated rats, activity expressed as ED50; format: functional
[21] = test system: Rattus norvegicus; experiment: The compound was tested in vivo for DOPA accumulation in limbic system against reserpine-pretreated rats; I= inactive at the highest dose tested (50).; format: functional, organism-based
[22] = test system: Rattus norvegicus; experiment: The compound was tested in vivo for DOPA accumulation in hemispheres (cortex) against reserpine-pretreated rats; I= inactive at the highest dose tested (50).; format: functional, organism-based
[23] = test system: Rattus norvegicus; experiment: compound was tested in vivo for 5-HTP accumulation in limbic system against reserpine-pretreated rats,; format: functional
[24] = target: T3, D(3) dopamine receptor; experiment: Binding affinity against Dopamine receptor D3 expressed in CHO-K1 cells, using [3H]spiperone as the radioligand.; format: cell-based
[25] = test system: Rattus norvegicus; experiment: Compound was tested in vivo for DOPA accumulation in corpus striatum against reserpine-pretreated rats;P= significant partial reduction only at the highest dose tested (50).; format: functional, organism-based
[26] = test system: Rattus norvegicus; experiment: The Compound was tested in vivo for DOPA accumulation in hemispheres (cortex) against reserpine-pretreated rats;I= inactive at the highest dose tested (50).; format: functional, organism-based
[27] = test system: Rattus norvegicus; experiment: The Compound was tested in vivo for DOPA accumulation in limbic system against reserpine-pretreated rats; P=significant partial reduction only at the highest dose tested (50).; format: functional, organism-based
[28] = test system: Rattus norvegicus; experiment: The Compound was tested in vivo for DOPA accumulation in hemispheres (cortex) against reserpine-pretreated rats; I=inactive at the highest dose tested (3.1).; format: functional, organism-based
[29] = test system: Rattus norvegicus; experiment: The Compound was tested in vivo for DOPA accumulation in hemispheres (cortex) against reserpine-pretreated rats; P=significant partial reduction only at the highest dose tested (50).; format: functional, organism-based
[30] = test system: Rattus norvegicus; experiment: compound was tested in vivo for 5-HTP accumulation in corpus striatum against reserpine-pretreated rats, activity expressed as ED50; I= inactive at the highest dose tested (50).; format: functional, organism-based
[31] = test system: Rattus norvegicus; experiment: compound was tested in vivo for 5-HTP accumulation in limbic system against reserpine-pretreated rats; I= inactive at the highest dose tested (50).; format: functional, organism-based
[32] = test system: Rattus norvegicus; experiment: compound was tested in vivo for DOPA accumulation in corpus striatum against reserpine-pretreated rats; P=significant partial reduction only at the highest dose tested (50).; format: functional, organism-based
[33] = test system: Rattus norvegicus; experiment: compound was tested in vivo for 5-HTP accumulation in hemispheres (cortex) against reserpine-pretreated rats; I= inactive at the highest dose tested (50).; format: functional, organism-based
[34] = target: T3, D(3) dopamine receptor; experiment: Binding affinity against Dopamine receptor D3 from CHO-K1 cells, using [3H]spiperone as the radioligand.; format: cell-based; settings: cho-k1

Row | SMILES | ED50 [2] | ED50 [4] | Ki ([5]; read-out: Ki) | ED50 [6] | Ki [7] | ED50 [9] | Ki [17] | Ki [18] | Ki [24] | other results
1 | CCCN(CCC)C1CCc2cc(F)c3[nH]ccc3c2C1 (stereo not given) | 1.17 µmol/kg | 0.54 µmol/kg | 216 nM | 1.92 µmol/kg | 1.4 nM | 0.06 µmol/kg | – | – | – | ED50 [1]: 1 µmol/kg; Ki [3]: 2.8 nM; ED50 [8]: inactive
2 | CN(C)[C@@H]1CCc2ccc3[nH]ccc3c2C1 | – | – | – | – | – | – | – | – | – | bioavailability [10]: 46%; T max [11]: 150 h; AUC [12]: 431 pM ml-1; Tmax [13]: 2 h; AUC [14]: 848 pM ml-1
3 | CCCNC1CCc2cc(F)ccc2C1 (stereo not given) | – | – | 1510 nM | – | 134 nM | – | 162 nM | 585 nM | – | ED50 [15]: inactive; ED50 [16]: 12.8 µmol/kg; Ki [19]: 156 nM; ED50 [20]: 9.53 µmol/kg; ED50 [21]: inactive; ED50 [22]: inactive; ED50 [23]: 15.5 µmol/kg
4 | CCCN(CCC)C1CCc2ccc3[nH]cc(C(C)=O)c3c2C1 (stereo not given) | – | 13 µmol/kg | 587 nM | 15.5 µmol/kg | 14 nM | 16 µmol/kg | 206 nM | 108 nM | 320 nM | ED50 [25]: Weak activity; ED50 [26]: inactive; ED50 [27]: Weak activity
5 | CCCN(CCC)[C@H]1CCc2ccc3[nH]ccc3c2C1 | 0.51 µmol/kg | 0.23 µmol/kg | 2280 nM | 0.21 µmol/kg | – | 0.34 µmol/kg | 17 nM | 440 nM | 22 nM | ED50 [28]: inactive; ED50 [1]: 0.82 µmol/kg
6 | CCCN(CCC)C1CCc2ccc3[nH]cc(Cl)c3c2C1 (stereo not given) | – | – | – | – | 2 nM | – | 9.8 nM | 23 nM | 15 nM | ED50 [29]: Weak activity; Ki ([5]; cho-k1): Not Active
7 | CCCN(CCC)C1CCc2ccc3[nH]cc(C(=O)c4ccccc4)c3c2C1 (stereo not given) | – | – | – | – | 8.6 nM | – | 177 nM | – | 108 nM | –
8 | CCCN(CCC)[C@@H]1CCc2ccc3[nH]ccc3c2C1 | 0.15 µmol/kg | – | 139 nM | 0.21 µmol/kg | – | 0.17 µmol/kg | 7.4 nM | 16 nM | 30 nM | ED50 [28]: inactive
9 | CCCN(CCC)C1CCc2ccc3[nH]cc(C)c3c2C1 (stereo not given) | – | – | – | – | – | – | – | 43 nM | 67 nM | –
10 | CCCN(CCC)[C@H]1CCc2cc(F)c3[nH]ccc3c2C1 | 0.8 µmol/kg | 0.83 µmol/kg | 948 nM | 0.74 µmol/kg | 3.7 nM | 0.42 µmol/kg | – | – | – | ED50 [1]: 0.43 µmol/kg; Ki [3]: 4.4 nM; ED50 [8]: inactive
11 | CCCN(CCC)C1CCc2ccc3[nH]cc(CC(F)(F)F)c3c2C1 (stereo not given) | – | – | 409 nM | – | 18 nM | – | 86 nM | 54 nM | – | Ki [19]: 134 nM; ED50 [30]: inactive; ED50 [31]: inactive; ED50 [32]: Weak activity; ED50 [21]: inactive; ED50 [22]: inactive; ED50 [33]: inactive
12 | CCCN(CCC)[C@@H]1CCc2ccc3[nH]cc(C(=O)C(N)=O)c3c2C1 | – | – | 856 nM | – | 17 nM | – | – | 54 nM | – | Ki [3]: 472 nM; Ki [34]: Not Active
